# How the values were obtained:
# TPP1 [1] = assay: TPP1 activity assay on cell extracts of treated mouse brain cells; format: cell-based; conditions: WT astrocytes; 25 μM gemfibrozil and 10 μM fenofibrate, 24 hrs
# Procedure: TPP-I activity was assayed in 96-well format plates using the following modification of the method described by Vines and Warburton (6). Briefly, samples and substrate (40 μL) were mixed in individual wells of polystyrene 96-well plate (Nalge Nunc International). […] A3401; Sigma; diluted freshly from a 25 mmol/L stock solution in dimethyl sulfoxide stored at -20° C.) in 0.15 mol/L NaCl-1 g/L Triton X-100-0.1 mol/L sodium acetate, adjusted to pH 4.0 at 20° C. Plates were centrifuged briefly to dispel bubbles and placed in a 37° C. Plates were mixed for 10 s before each reading. The plates were read from the bottom using 360/20 nm excitation and 460/25 nm emission filters. Prior to the assay, the optimum substrate concentration and total protein in cell extract that can used to get best results were determined in the same manner described above, using different substrate concentrations and protein concentrations in the cell extract.
# primary human astrocytes = assay: LysoTracker labeling of lysosomes in primary human astrocytes; format: cell-based; conditions: 25 μM gemfibrozil and 10 μM fenofibrate, 24 hrs
# Text: (§1) DAPI was used to visualize nuclei. Results represent 3 independent experiments.
# lysosomal genes [2] = assay: Quantitative real-time PCR for lysosomal genes in mouse astrocytes; format: cell-based; conditions: 25 μM gemfibrozil, different time points, serum free
# Procedure: (§3) (FIG. 13A) Quantitative real-time PCR for lysosomal genes in mouse astrocytes treated with 25 μM gemfibrozil for different time points under serum free conditions. […] (FIG. 13B) RT-PCR for lysosomal genes in human astrocytes treated under same condition. […] Results represent 3 independent experiments.
# TPP1 [3] = assay: TPP1 immunofluorescence of brain sections after oral gemfibrozil in WT, PPARα−/− and PPARβ−/− mice; format: in vivo, mouse; conditions: oral 7.5 mg/kg body wt/day, 21 days
# Text: After 21 days of treatment, mice were sacrificed and their brains fixed, embedded, and processed. Sections were made from different brain regions and for immunofluorescence staining on fresh frozen sections, anti-mouse TPP1 (1:200), goat anti mouse GFAP (1:100) were used. The samples were mounted and observed under Olympus BX41 fluorescence microscope (26).
# Once we confirmed the involvement of PPARα in the fibrate mediated upregulation of TPP1 protein, we further checked whether the same results could be replicated in in vivo settings. WT, PPARα^−/− and PPARβ^−/− mice from same background were treated orally for 21 days with 7.5 mg/kg body wt/day gemfibrozil dissolved in 0.1% methylcellulose, which was also used as vehicle. At the end of the treatment, the mice were killed and different regions of their brain, viz. Substantia nigra pars compacta, cortex, hippocampus, and dentate gyrus were sectioned, and immunofluorescence was performed for the presence of TPP1.
# lysosomal genes [4] = assay: RT-PCR for lysosomal genes in human astrocytes; format: cell-based; conditions: 25 μM gemfibrozil, serum free
# Procedure: as §3
# Cln1 mRNA = Cln1 mRNA expression by semi-quantitative RT-PCR in mouse primary astrocytes; format: cell-based; conditions: 25 μM gemfibrozil, 2, 6, 12, and 24 hrs
# Procedure: (§2) Astroglia were isolated from mixed glial cultures as described (17,18) according to the procedure of Giulian and Baker (19). Briefly, on day 9, the mixed glial cultures were washed three times with Dulbecco's modified Eagle's medium/F-12 and subjected to shaking at 240 rpm for 2 h at 37° C. on a rotary shaker to remove microglia. After 2 days, the shaking was repeated for 24 h for the removal of oligodendroglia and to ensure the complete removal of all nonastroglial cells. The attached cells were seeded onto new plates for further studies. Total RNA was isolated from mouse primary astrocytes and human primary astrocytes using RNA-Easy Qiagen (Valencia, Calif.) kit following manufactures protocol. Semi-quantitative RT-PCR was carried out as described earlier (24) using oligo (dT) 12-18 as primer and moloney murine leukemia virus reverse transcriptase (MMLV-RT, Invitrogen) in a 20 μl reaction mixture. The resulting cDNA was appropriately amplified using Promega Master Mix (Madison, Wis.) and the following primers (Invitrogen) for murine genes: […]
# TPP1 [5] = assay: Immunofluorescence for TPP1 in mouse primary astrocytes; format: cell-based
# Procedure: Astroglia were isolated from mixed glial cultures as described (17,18) according to the procedure of Giulian and Baker (19). Briefly, on day 9, the mixed glial cultures were washed three times with Dulbecco's modified Eagle's medium/F-12 and subjected to shaking at 240 rpm for 2 h at 37° C. on a rotary shaker to remove microglia. After 2 days, the shaking was repeated for 24 h for the removal of oligodendroglia and to ensure the complete removal of all nonastroglial cells. The attached cells were seeded onto new plates for further studies. Immunocytochemistry was performed as described earlier (25). Briefly, 8 well chamber slides containing mouse primary astrocytes, mouse neurons, human primary astrocytes or SH-SY5Y cells were cultured to 70-80% confluence were fixed with chilled Methanol (Fisher Scientific, Waltham, Mass.) overnight, followed by two brief rinses with filtered PBS. Samples were blocked with 2% BSA (Fisher Scientific) in PBS containing Tween 20 (Sigma) and Triton X-100 (Sigma) for 30 min and incubated at room temperature under shaking conditions for 2 hr in PBS containing the following anti-mouse primary antibodies: […] Santa Cruz Biotech, Santa Cruz, Calif.), GFAP, (1:100; Santa Cruz), and 3-tubulin (1:5000; Millipore). […] The samples were run in an EtOH and Xylene (Fisher) gradient, mounted and observed under Olympus BX41 fluorescence microscope.
# TPP1 [6] = assay: Immunofluorescence for TPP1 in mouse primary neurons; format: cell-based; conditions: mouse neurons from cortex, hippocampus, and striatum; 25 μM gemfibrozil and 10 μM fenofibrate, 24 hrs
# Procedure: Following four 15 minute washes with filtered PBS, cells were incubated for 4-5 min with 4′, 6-diamidino-2-phenylindole (DAPI, 1:10,000; Sigma).
# [7] = test system: tripeptidyl peptidase 1 (TPP1); assay: Double-labeling for TPP1 and β-tubulin (FIG. 11); format: cell-based; conditions: 25 μM gemfibrozil and 10 μM fenofibrate, 24 hours
# Text: as §1
# Cln3 mRNA = Cln3 mRNA expression by semi-quantitative RT-PCR in mouse primary astrocytes; format: cell-based; conditions: 25 μM gemfibrozil, 2, 6, 12, and 24 hrs
# Procedure: as §2
compound,measurement,setting,value
Cc1ccc(C)c(OCCCC(C)(C)C(=O)O)c1 [gemfibrozil],TPP1 enzymatic activity,TPP1 [1],drastically increased
same,lysosomal proliferation (LysoTracker),primary human astrocytes,upregulation
same,lysosomal genes mRNA (quantitative real-time PCR),lysosomal genes [2],upregulation
same,TPP1 in the dentate gyrus and CA1 region of the hippocampus (mostly non-neuronal cells),TPP1 [3]; PPARβ−/− mice,increased
same,level of TPP1 in GFAP-positive astrocytes and tyrosine hydroxylase-positive neurons in the substantia nigra,TPP1 [3]; PPARβ−/− mice,increased
same,level of TPP1 in GFAP-positive cortical astrocytes and NeuN-positive cortical neurons,TPP1 [3]; PPARβ−/− mice,markedly increased
same,TPP1 in the dentate gyrus and CA1 region of the hippocampus (mostly non-neuronal cells),TPP1 [3]; WT mice,increased
same,level of TPP1 in GFAP-positive astrocytes and tyrosine hydroxylase-positive neurons in the substantia nigra,TPP1 [3]; WT mice,increased
same,level of TPP1 in GFAP-positive cortical astrocytes and NeuN-positive cortical neurons,TPP1 [3]; WT mice,markedly increased
same,lysosomal genes mRNA (RT-PCR),lysosomal genes [4],upregulation
same,Cln1 mRNA expression,Cln1 mRNA,increase within 12 to 24 h
same,TPP1 (immunofluorescence),"TPP1 [5]; PPARα−/− astrocytes compared to WT and PPARβ−/− cells, 25 μM gemfibrozil and 10 μM fenofibrate, 24 hrs",little or no increase
same,TPP1 protein (immunofluorescence),"TPP1 [5]; mouse primary astrocytes, different concentrations",dose dependant increase
same,TPP1 (immunofluorescence),TPP1 [6],significant increase
same,lysosomal marker protein TPP1 (double-labeling),[7],upregulation
same,Cln3 mRNA expression,Cln3 mRNA,increase within 12 to 24 h

# Reference: US11351142B2, “Composition and method for treating neuronal ceroid lipofuscinosis” (Rush University Medical Center, priority 2012, dated 2022)
